The nature of series [1]: Toxicity in BALB/c nude mouse xenografted with human MV4-11 cells assessed as effect on liver weight at 20 mg/kg, ip administered every two days for 14 days. Format: organism-based. To be noted: in vivo, 336 h, time 14 day. (In general: Xenograft models place foreign cells or tissue in a host animal.)
A short description of series [2]: Apparent volume of distribution in Sprague-Dawley rat at 3 mg/kg, iv measured up to 24 hrs by LC-MS/MS analysis. Format: ADME, organism-based. To be noted: in vivo, read-out: Vz.
Series [3] is described as follows: Clearance in Sprague-Dawley rat at 10 mg/kg, po measured up to 24 hrs by LC-MS/MS analysis. Format: ADME, organism-based. Conditions: in vivo.
Another series deals with MV4-11. Description: Antitumor activity against human MV4-11 cells xenografted in BALB/c nude mouse assessed as tumor growth inhibition by measuring T/C ratio at 60 mg/kg, po administered every two days for 14 days relative to control. Format: functional. To be noted: time 14 day.
Series [4] in a line: Stability in human liver microsomes assessed as parent compound remaining preincubated for 5 mins followed by NADPH addition and measured after 30 mins by LC-MS/MS analysis. Format: ADME, Microsome. Conditions: time 35 min, read-out: Stabilty. (In general: Liver microsomes are a subcellular fraction often used to study metabolism.)
Series [5] can be described thus: Half life in rat liver microsomes. Format: ADME, Microsome.
The next series has as its system K562. Description: Antiproliferative activity against human K562 cells assessed as decrease in cell viability measured after 72 hrs by MTT assay. Format: functional, cell-based. To be noted: K562, 72 h. On the technique in general: Tetrazolium assays rely on reduction of a dye to a coloured formazan, in cell work by metabolically active cells.
Series [6] in a line: Toxicity in BALB/c nude mouse xenografted with human MV4-11 cells assessed as effect on heart at 60 mg/kg, po administered every two days for 14 days by hematoxyin-eosin staining based analysis. Format: organism-based. Conditions: in vivo, 336 h, time 14 day.
The next series deals with T1, CYP1A2 (Homo sapiens, UniProt P05177).
T1 sequence (P05177 whole entry): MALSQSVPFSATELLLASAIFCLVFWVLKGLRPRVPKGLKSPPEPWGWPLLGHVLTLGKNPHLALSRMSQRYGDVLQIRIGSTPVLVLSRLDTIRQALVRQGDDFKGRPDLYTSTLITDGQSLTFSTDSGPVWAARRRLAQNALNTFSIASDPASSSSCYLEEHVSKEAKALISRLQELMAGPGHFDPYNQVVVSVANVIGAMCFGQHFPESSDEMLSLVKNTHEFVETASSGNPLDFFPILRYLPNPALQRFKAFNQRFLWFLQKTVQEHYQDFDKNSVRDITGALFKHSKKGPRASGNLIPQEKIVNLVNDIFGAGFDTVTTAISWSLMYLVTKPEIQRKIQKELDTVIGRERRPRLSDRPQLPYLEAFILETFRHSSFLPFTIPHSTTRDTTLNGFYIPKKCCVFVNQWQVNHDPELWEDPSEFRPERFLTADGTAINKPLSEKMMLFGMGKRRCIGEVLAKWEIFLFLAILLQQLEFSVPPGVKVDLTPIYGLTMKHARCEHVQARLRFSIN
Description: Inhibition of CYP1A2 (unknown origin) at 10 uM preincubated for 5 min followed by NADPH addition and measured after 20 mins by LC-MS/MS analysis relative to control. Format: ADME. Conditions: time 25 min.

The record followed here is ChEMBL document CHEMBL4834480, “Discovery of 3,5-Dimethyl-4-Sulfonyl-1H-Pyrrole-Based Myeloid Cell Leukemia 1 Inhibitors with High Affinity, Selectivity, and Oral Bioavailability” (J Med Chem, 2021).

Structures are written as SMILES.

`CC(=O)c1ccc(S(=O)(=O)c2c(C)c(C(=O)O)n(CCCOc3cc(C)c(Cl)c(C)c3)c2C)cc1`: the Activity result in [1] and in [6] was “Non-Toxic” in each case. Besides, in series [2], the Vd was 3.08 L/kg. Further, the apparent clearance CL/F in [3] came to 36.8 mL/min/kg. For the same molecule, in the series with MV4-11, the T/C came out at 37.3%. In [4], the remaining at 0.5 h stood at 64%. In series [5], the half-life was 45 min. Besides, in the series on K562, the half-maximal inhibitory concentration (IC50) is over 30 µM. This molecule also displayed an inhibition at 20 min, 10 µM at CYP1A2 of 19.3%.

A word on the CL/F: it is clearance divided by bioavailability, as obtained after extravascular dosing. What is called T/C is the result in the treated group divided by that in the control group, in per cent. The term half-life denotes how long it takes for the measured level to halve. The term IC50 denotes the midpoint of a concentration-inhibition curve. Broadly, the inhibition is how much of the control response was suppressed.
